# Measured values taken from US20240228555A9, “ANTIMICROBIAL PEPTIDOMIMETICS” (Basilea Pharmaceutica International AG, Allschwil, priority 2020, published 2024).
# Where a SMILES comes first, the peptide text is derived from it.
# Key:
# [1] = system: human red blood cells (hRBC); assay type: cell-based; conditions: red cells of human, 1 h, 0.2 g/L
# In short: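 Percent lysis was derived from supernatant absorbance at 540 nm relative to full lysis by 2.5% Triton X-100 (PBS defines 0%). Compounds, 200 μg/mL, were exposed for 1 h at 37° C to a 20% (v/v) suspension of washed human red cells.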
# [2] = system: Escherichia coli ATCC 25922; conditions: ATCC 25922
# In short: (§1)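 First, bacterial colonies are suspended in saline and adjusted to 0.5 McFarland. Next, the suspension is diluted into cation-adjusted Mueller-Hinton II broth (approx. 5×10^5 CFU/mL). Finally, it is added to two-fold serially diluted peptide, with polysorbate 80 at 0.002% final.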
# [3] = system: Klebsiella pneumoniae SSI3010; conditions: SSI3010
# In short: as §1
# [4] = system: Escherichia coli MCR-1 Af 45; conditions: Mueller-Hinton broth II, no visible growth after 18-20 hours at 35° C.
# In short: as §1
Compound,Hemolysis at 0.2 g/L [1],Escherichia coli ATCC 25922 MIC [2],Klebsiella pneumoniae SSI3010 MIC [3],Escherichia coli MCR-1 Af 45 MIC [4]
"CC[C@H](C)[C@H](NC(=O)[C@@H]1C[C@@H](O)CN1C(=O)[C@@H](N)C(C)C)C(=O)N[C@H](C(=O)N[C@@H](Cc1ccc(O)cc1)C(=O)N[C@@H]1C(=O)N[C@@H](CC(N)=O)C(=O)N[C@@H](CCCNC(=N)N)C(=O)N[C@@H](CCN)C(=O)N[C@@H](CO)C(=O)N[C@H](CCN)C(=O)N[C@@H](CCCCN)C(=O)N[C@H](C(=O)N[C@@H](CCN)C(=O)N[C@@H](CCN)C(=O)N[C@@H](Cc2ccc(O)cc2)C(=O)O)CSSC1(C)C)[C@@H](C)O [Example 77, Val-Hyp-Ile-Thr-Tyr-Pen-Asn-Arg-Dab-Ser-^DDab-Lys-Cys-Dab-Dab-Tyr] (HELM PEPTIDE1{V.[Hyp].I.T.Y.[Pen].N.R.[Dab].S.[NCC[C@@H](N[*:1])C(=O)[*:2]].K.C.[Dab].[Dab].Y}$PEPTIDE1,PEPTIDE1,6:R3-13:R3$$$V2.0)",<1%,0.0625 µg/mL,0.125 µg/mL,0.0625 µg/mL
"CC[C@H](C)[C@@H]1NC(=O)[C@@H](CCN)NC(=O)[C@H]([C@@H](C)O)NC(=O)[C@H](CCN)NC(=O)[C@H](CCCNC(=N)N)NC(=O)[C@H](CC(N)=O)NC(=O)[C@@H](NC(=O)[C@H](Cc2ccc(O)cc2)NC(=O)[C@@H](NC(=O)[C@@H](NC(=O)[C@@H]2C[C@@H](N)CN2C(=O)[C@@H](N)C(C)C)[C@@H](C)CC)[C@@H](C)O)C(C)(C)SSC[C@@H](C(=O)N[C@@H](CCN)C(=O)N[C@H](C(=O)N[C@@H](Cc2ccc(O)cc2)C(=O)O)[C@@H](C)O)NC1=O [Example 117, Val-Pro((4R)NH2)-Ile-Thr-Tyr-Pen-Asn-Arg-Dab-Thr-^DDab-Ile-Cys-Dab-Thr-Tyr] (HELM PEPTIDE1{V.[N[C@@H]1C[C@@H](C(=O)[*:2])N([*:1])C1].I.T.Y.[Pen].N.R.[Dab].T.[NCC[C@@H](N[*:1])C(=O)[*:2]].I.C.[Dab].T.Y}$PEPTIDE1,PEPTIDE1,6:R3-13:R3$$$V2.0)",<1%,0.125 µg/mL,0.25 µg/mL,0.125 µg/mL
"CC[C@H](C)[C@H](NC(=O)[C@@H](NC(=O)[C@@H]1C[C@@H](O)CN1C(=O)[C@@H](N)C(C)C)[C@@H](C)CC)C(=O)N[C@@H](Cc1ccc(O)cc1)C(=O)N[C@@H]1C(=O)N[C@@H](CC(N)=O)C(=O)N[C@@H](CCCNC(=N)N)C(=O)N[C@@H](CCCCN)C(=O)N[C@@H]([C@@H](C)O)C(=O)N[C@H](CCN)C(=O)N[C@@H](CCCCN)C(=O)N[C@H](C(=O)N[C@@H](CCCCN)C(=O)N[C@@H](CCCNC(=N)N)C(=O)N[C@@H](Cc2ccc(O)cc2)C(=O)O)CSSC1(C)C [Example 82, Val-Hyp-Ile-Ile-Tyr-Pen-Asn-Arg-Lys-Thr-^DDab-Lys-Cys-Lys-Arg-Tyr] (HELM PEPTIDE1{V.[Hyp].I.I.Y.[Pen].N.R.K.T.[NCC[C@@H](N[*:1])C(=O)[*:2]].K.C.K.R.Y}$PEPTIDE1,PEPTIDE1,6:R3-13:R3$$$V2.0)",<1%,0.125 µg/mL,0.25 µg/mL,0.125 µg/mL
"CC[C@H](C)[C@H](NC(=O)[C@@H](NC(=O)[C@@H]1C[C@@H](O)CN1C(=O)[C@@H](N)C(C)C)[C@@H](C)CC)C(=O)N[C@@H](Cc1ccc(O)cc1)C(=O)N[C@@H]1C(=O)N[C@@H](CC(N)=O)C(=O)N[C@@H](CCCNC(=N)N)C(=O)N[C@@H](CCN)C(=O)N[C@@H]([C@@H](C)O)C(=O)N[C@H](CCN)C(=O)N[C@@H](CCCCN)C(=O)N[C@H](C(=O)N[C@@H](CCN)C(=O)N[C@@H](CO)C(=O)N[C@@H](Cc2ccc(O)cc2)C(=O)O)CSSC1(C)C [Example 105, Val-Hyp-Ile-Ile-Tyr-Pen-Asn-Arg-Dab-Thr-^DDab-Lys-Cys-Dab-Ser-Tyr] (HELM PEPTIDE1{V.[Hyp].I.I.Y.[Pen].N.R.[Dab].T.[NCC[C@@H](N[*:1])C(=O)[*:2]].K.C.[Dab].S.Y}$PEPTIDE1,PEPTIDE1,6:R3-13:R3$$$V2.0)",<1%,0.25 µg/mL,0.5 µg/mL,0.125 µg/mL
"CC[C@H](C)[C@@H]1NC(=O)[C@@H](NC(=O)[C@H](Cc2ccc(O)cc2)NC(=O)[C@@H](NC(=O)[C@@H](NC(=O)[C@@H]2C[C@@H](O)CN2C(=O)[C@@H](N)C(C)(C)C)[C@@H](C)CC)[C@@H](C)O)C(C)(C)SSC[C@@H](C(=O)N[C@@H](CCN)C(=O)N[C@@H](CCCN)C(=O)N[C@@H](Cc2ccc(O)cc2)C(=O)O)NC(=O)[C@H](CCCCN)NC(=O)[C@@H](CCN)NC(=O)[C@H]([C@@H](C)O)NC(=O)[C@H](CCN)NC(=O)[C@H](CCCNC(=N)N)NC1=O [Example 95, tBuGly-Hyp-Ile-Thr-Tyr-Pen-Ile-Arg-Dab-Thr-^DDab-Lys-Cys-Dab-Orn-Tyr] (HELM PEPTIDE1{[CC(C)(C)[C@H](N)C(=O)[*:2]].[Hyp].I.T.Y.[Pen].I.R.[Dab].T.[NCC[C@@H](N[*:1])C(=O)[*:2]].K.C.[Dab].[Orn].Y}$PEPTIDE1,PEPTIDE1,6:R3-13:R3$$$V2.0)",<1%,0.125 µg/mL,0.25 µg/mL,0.125 µg/mL
"CC[C@H](C)[C@H](NC(=O)[C@@H](NC(=O)[C@@H]1C[C@@H](O)CN1C(=O)[C@@H](N)C(C)C)[C@@H](C)CC)C(=O)N[C@@H](Cc1ccc(O)cc1)C(=O)N[C@@H]1C(=O)N[C@@H](CC(N)=O)C(=O)N[C@@H](CCCNC(=N)N)C(=O)N[C@@H](CCN)C(=O)N[C@@H]([C@@H](C)O)C(=O)N[C@H](CCN)C(=O)N[C@@H](CCCN)C(=O)N[C@H](C(=O)N[C@@H](CCN)C(=O)N[C@@H](CCCNC(=N)N)C(=O)N[C@@H](Cc2ccc(O)cc2)C(=O)O)CSSC1(C)C [Example 78, Val-Hyp-Ile-Ile-Tyr-Pen-Asn-Arg-Dab-Thr-^DDab-Orn-Cys-Dab-Arg-Tyr] (HELM PEPTIDE1{V.[Hyp].I.I.Y.[Pen].N.R.[Dab].T.[NCC[C@@H](N[*:1])C(=O)[*:2]].[Orn].C.[Dab].R.Y}$PEPTIDE1,PEPTIDE1,6:R3-13:R3$$$V2.0)",<1%,0.0625 µg/mL,0.125 µg/mL,0.0625 µg/mL
"CC[C@H](C)[C@H](NC(=O)[C@@H](NC(=O)[C@@H]1C[C@@H](O)CN1C(=O)[C@@H](N)C(C)C)[C@@H](C)CC)C(=O)N[C@@H](Cc1ccc(O)cc1)C(=O)N[C@@H]1C(=O)N[C@@H](CC(N)=O)C(=O)N[C@@H](CCCNC(=N)N)C(=O)N[C@@H](CCN)C(=O)N[C@@H](CO)C(=O)N[C@H](CCN)C(=O)N[C@@H](CCCCN)C(=O)N[C@H](C(=O)N[C@@H](CCN)C(=O)N[C@@H](CCCN)C(=O)N[C@@H](Cc2ccc(O)cc2)C(=O)O)CSSC1(C)C [Example 86, Val-Hyp-Ile-Ile-Tyr-Pen-Asn-Arg-Dab-Ser-^DDab-Lys-Cys-Dab-Orn-Tyr] (HELM PEPTIDE1{V.[Hyp].I.I.Y.[Pen].N.R.[Dab].S.[NCC[C@@H](N[*:1])C(=O)[*:2]].K.C.[Dab].[Orn].Y}$PEPTIDE1,PEPTIDE1,6:R3-13:R3$$$V2.0)",<1%,0.125 µg/mL,0.25 µg/mL,0.0625 µg/mL
"CC[C@H](C)[C@H](NC(=O)[C@@H]1C[C@@H](O)CN1C(=O)[C@@H](N)C(C)C)C(=O)N[C@H](C(=O)N[C@@H](Cc1ccc(O)cc1)C(=O)N[C@@H]1C(=O)N[C@@H](CC(N)=O)C(=O)N[C@@H](CCCNC(=N)N)C(=O)N[C@@H](CCN)C(=O)N[C@@H]([C@@H](C)O)C(=O)N[C@H](CCN)C(=O)N[C@@H](CCCCN)C(=O)N[C@H](C(=O)N[C@@H](CCN)C(=O)N[C@@H](CCCNC(C)C)C(=O)N[C@@H](Cc2ccc(O)cc2)C(=O)O)CSSC1(C)C)[C@@H](C)O [Example 136, Hyp-Ile-Thr-Tyr-Pen-Asn-Arg-Dab-Thr-^DDab-Lys-Cys-Dab-Orn(iPr)-Tyr] (HELM PEPTIDE1{V.[Hyp].I.T.Y.[Pen].N.R.[Dab].T.[NCC[C@@H](N[*:1])C(=O)[*:2]].K.C.[Dab].[CC(C)NCCC[C@H](N[*:1])C(=O)[*:2]].Y}$PEPTIDE1,PEPTIDE1,6:R3-13:R3$$$V2.0)",<1%,0.125 µg/mL,0.5 µg/mL,0.25 µg/mL
"CC[C@H](C)[C@H](NC(=O)[C@@H](NC(=O)[C@@H]1C[C@@H](O)CN1C(=O)[C@@H](N)C(C)C)[C@@H](C)CC)C(=O)N[C@@H](Cc1ccc(O)cc1)C(=O)N[C@@H]1C(=O)N[C@@H](CC(N)=O)C(=O)N[C@@H](CCCNC(=N)N)C(=O)N[C@@H](CCN)C(=O)N[C@@H](CO)C(=O)N[C@H](CCN)C(=O)N[C@@H](CCCCN)C(=O)N[C@H](C(=O)N[C@@H](CCN)C(=O)N[C@H](C(=O)N[C@@H](Cc2ccc(O)cc2)C(=O)O)[C@@H](C)O)CSSC1(C)C [Example 112, Val-Hyp-Ile-Ile-Tyr-Pen-Asn-Arg-Dab-Ser-^DDab-Lys-Cys-Dab-Thr-Tyr] (HELM PEPTIDE1{V.[Hyp].I.I.Y.[Pen].N.R.[Dab].S.[NCC[C@@H](N[*:1])C(=O)[*:2]].K.C.[Dab].T.Y}$PEPTIDE1,PEPTIDE1,6:R3-13:R3$$$V2.0)",<1%,0.25 µg/mL,0.25 µg/mL,0.0625 µg/mL
